This note sets out measurements from paper PMC7824769, “Identification of Small Molecules Blocking the Pseudomonas aeruginosa Type III Secretion System Protein PcrV” (Biomolecules, 2021).

One assay concerns the target PcrV (Pseudomonas aeruginosa, UniProt G3XD49). Description: SPR dose-response binding to immobilized PcrV (equilibrium analysis). The settings on record: for Binding to PcrV in SPR (in words): dose-response SPR. As for the experimental part: The SPR screening was performed using the ProteOn^TM XPR36 Protein Interaction Array System (Bio-Rad Laboratories Inc., Hercules, CA, USA) with ProteOn GLH sensor chip (Bio-Rad Laboratories Inc., Hercules, CA, USA), and the results were analyzed with the ProteOn Manager software^TM (Bio-Rad Laboratories Inc., Hercules, CA, USA), Excel 2016 (Microsoft Office), and GraphPad Prism 7.04. All SPR experiments were performed at 25 °C. The multichannel module of the ProteOn system was in the vertical position during protein immobilization. The proteins were attached to the surface of a GLH sensor chip via amine coupling chemistry. A buffer scouting was performed to elucidate the optimal binding conditions of PcrV to the GLH sensor chip. First, channels 1–4 on the chip surface were activated using a 1:1 mixture of 40 mM 1-ethyl-3-(3-dimethylaminopropyl)carbodiimide hydrochloride (EDAC) (Bio-Rad Laboratories Inc., Hercules, CA, USA) and 10 mM N-hydroxysulfosuccinimide (sulfo-NHS, Bio-Rad Laboratories Inc., Hercules, CA, USA) for 300 s at 30 µL/min. Next, the proteins PcrV (33,398.6 Da, 6.37 mg/mL) was diluted in 10 mM NaOAc (pH 4, 4.5, and 5) to 0.05 mg/mL. PcrV was immobilized in channel 1–3 for 540 s at 30 µL/min. Channel 4 was flushed with 10 mM NaOAc (pH 5) for 540 s at 30 µL/min. As deactivating agent, a 1:1 mixture of 1 M ethanolamine and milli-Q filtered water was used. The deactivating solution was injected over all four channels for 300 s at 30 µL/min. Phosphate buffered saline with Tween (PBST; 10 mM phosphate buffer pH 7.4, 140 mM NaCl, 2.7 mM KCl, and 0.05% Tween 20) was used as the running buffer. The final amount of immobilized protein was measured in resonance units (RU) relative to the signal of the baseline prior activation. […] Immobilization of PcrV diluted in sodium acetate of pH 4.5 in one channel and of pH 5 in one channel were used in the beginning of the screening procedure (for plate 1–26). Since no difference was found between the two pH values, the PcrV protein was diluted in sodium acetate at pH 5 only (in two channels) from plate 27 and the rest of the screen. The immobilization procedure for the screening was performed as described above with the addition that the control protein carbonic anhydrase isoenzyme II from bovine erythrocytes (CAII, Sigma-Aldrich, article number 2522) was immobilized in one channel that was activated and deactivated as described above. CAII (1 mg/mL in PBS) was deactivated when diluted in 10 mM sodium acetate (pH 4) to 0.05 mg/mL. Immobilization level of the deactivated CAII was 18,000 RU. Deactivated CAII was used as a control protein according to the recommendations by the ProteOn manufacturer (Bio-Rad Laboratories Inc., Hercules, CA, USA). As running buffer, we employed PBS (pH 7.4, 0.05% Tween 20).
First, the PcrV protein was immobilized in two channels as described above while keeping a blank channel which was activated and deactivated as described above. The multichannel module of the ProteOn system was in horizontal position during the small molecule interaction studies. They were serially diluted to (400,) 200, 100, 50, 25, 12.5, 6.25, and (3.125); or 100, 50, 25, and 12.5 µM; or 100, 66.7, 44.4, 29.6, 19.7, and 13.2 µM in PBST (0.05% Tween 20) with a total concentration of 5% DMSO in 96-well plates. The running buffer was PBST (0.05% Tween 20) containing 5% DMSO. The analytes were injected at a flowrate of 100 µL/min, contact time was 60 s, and dissociation time was 60–120 s. Solvent correction was performed continuously during the experiments to account for bulk response of DMSO. The data was then baseline-aligned, processed by channel referencing with the blank channel, and solvent-corrected. The equilibrium dissociation constant (KD) values were determined from equilibrium analysis in the ProteOn Manager software^TM. Solubility problems frequently hampered KD determination since the small molecules could not always be dissolved in concentrations high enough to reach a plateau. […]

The subject of assay [1] is J774 cells infected with P. aeruginosa strain PAK. Description: cells. The conditions noted are these: for viability at 25 µM / viability at 50 µM / viability at 100 µM / viability at 200 µM: Pseudomonas aeruginosa, uninfected control = 100%, infected control = 0%; for viability at 25 µM: J774, compound 25 µM, read-out: Viability Assay (% of Uninfected Control) 25 µM; for viability at 50 µM: J774, compound 50 µM, read-out: Viability Assay (% of Uninfected Control) 50 µM; for viability at 100 µM: J774, compound 100 µM, read-out: Viability Assay (% of Uninfected Control) 100 µM; for viability at 200 µM: J774, compound 200 µM; for Anti-virulence efficacy in the infection assay (in words): 25-200 µM. The format is cell-based, Pseudomonas aeruginosa. How it is done:
The cell viability assay was performed essentially as described before. J774 cells were seeded in 96-well micro-titer plates (Nunc), 100 µL/well, to a final number of 50,000 cells/well in Dulbecco’s modified Eagle’s medium (DMEM) with glutamax (Merck) supplemented with 10% fetal calf serum (FCS) and 3 µg/mL gentamicin and incubated for 16-18 h. Overnight cultures of the P. aeruginosa strains PAK and PAKpcrV [10] were grown in Luria Broth (LB) on a rotary shaker at 220 rpm at 37 °C. Prior to infection, the bacteria were diluted 1:10 in DMEM + glutamax and incubated for 1 h at 37 °C (shaking). The J774 cells were washed once with PBS, then 30 µL of DMEM with glutamax and 10% FCS supplemented with the potential binders at concentrations of 50, 100, 200, and 400 µM were added to the wells in triplicates. The infection was initiated by adding 30 µL of the diluted bacterial solutions (where the OD600 had been diluted to 0.0008) to each well to initiate infection. This infection results in a final bacterial concentration of OD600 = 0.0004 and a multiplicities of infection (MOI) of approximately 8, with final concentrations of the compounds at 25, 50, 100, and 200 µM in 60 µL of DMEM + glutamax and 5% FCS. In the primary screening, the compounds were run at one concentration (100 µM) in duplicates. As an infection control, the wild-type strain PAK with 1% DMSO was added, and as a positive control, PAKpcrV with 1% DMSO was added into four wells each. After 3 h and 30 min, 10 µL of UptiBlue Viable Cell Counting Kit (Interchime, France) was added to all wells. The infection was followed under the light microscope and the fluorescence (excitation 535 nm and emission 595 nm) was measured at 4, 5, and 6 h in a microplate reader (Synergy™ H4, Biotek). The results were calculated as percentage of living cells compared to uninfected control, where the uninfected control was set to 100% living cells and the infected control was set to 0% living cells. As a control, compounds were added to uninfected cells in a parallel experiment and viability was calculated as above to screen for cell toxicity. A compound was considered toxic if the viability was <80% of the uninfected control after 6 h of incubation and if a visual change of cell morphology was observed by microscopy. Z’ was calculated for each plate to ensure good quality throughout the screening. Only results from plates with a Z’ > 0.4 were counted. Standard deviation was calculated with Gaussian approximation when appropriate and shown as error bars in Figure 3C and Figure 4A.
The T3SS is important for P. aeruginosa infection of eukaryotic cells, and a T3SS activator mutant or a mutant lacking the T3SS tip protein PcrV are not able to infect eukaryotic cells. The macrophage cell line, J774, was infected with the wild-type P. aeruginosa strain PAK, and the potential PcrV binders were added to the wells at a final concentration of 100 µM to screen for inhibition of infection. The T3SS-mediated cytotoxic effect on the eukaryotic cells was measured by using a viability staining method (Uptiblue, Interchim), and the results were measured after 4, 5, and 6 h of infection. The pcrV-mutant (PAKpcrV), which is not able to infect macrophages due to deletion of the PcrV protein, was used as a control.

[2] abbreviates: SPR KD, equilibrium analysis, mean ± SD of three or more independent experiments, individual values where n < 3, 25 °C, PBST 5% DMSO.
The mark [3] stands for this setting: KD ± standard error of KD (Table S1), single experiment, standard error from ProteOn Manager software.

The Kd is the free concentration of one partner at which half of the binding sites on the other are occupied at equilibrium, for simple one-to-one binding. High values mean lower affinity, low ones higher affinity. The viability is the share of living cells, or the viability signal relative to a control.

Structures are written as SMILES. “And” between values parts separate entries of the source, which are not always exact repeats. Equal values may be shown once.

PcrV, sequence (G3XD49 entry or part of it): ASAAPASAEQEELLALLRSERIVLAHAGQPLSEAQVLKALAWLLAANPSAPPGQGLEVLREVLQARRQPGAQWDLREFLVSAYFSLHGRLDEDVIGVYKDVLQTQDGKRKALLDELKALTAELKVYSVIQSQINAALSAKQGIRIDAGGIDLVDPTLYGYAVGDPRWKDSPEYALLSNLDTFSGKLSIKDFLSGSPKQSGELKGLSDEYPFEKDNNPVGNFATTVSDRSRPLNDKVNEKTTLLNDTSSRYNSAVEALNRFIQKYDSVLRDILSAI

Regarding `O=C(O)CCCOc1ccc2c(c1)OCO2` [Compound 8], the Kd on PcrV (setting [2]) is over 600 µM. Further, the “Binding to PcrV in SPR (in words)” value at PcrV was “impaired binding”.
On to `Cc1cc(Br)cc(C)c1OCCCC(=O)O` [Compound 13], for which, in assay [1], the viability at 25 µM stood at 19%, the viability at 50 µM was found to be 18%, the viability at 100 µM came to 21% and the viability at 200 µM worked out at 20%. This molecule also displayed a Kd at PcrV (setting [2]) of 431 ± 110 µM. Moreover, the “Binding to PcrV in SPR (in words)” value at PcrV is given as “reduced binding”.
Consider `Cc1c(Br)ccc(OCCCC(=O)NS(=O)(=O)C(F)(F)F)c1C` [Compound 25], for which, in assay [1], the “Anti-virulence efficacy in the infection assay (in words)” value (from here on “Anti-virulence efficacy”) is “as efficacious as or better than H1”, the viability at 25 µM was found to be 9%, the viability at 50 µM is 11% and the viability at 100 µM was 22%. Further, the viability at 200 µM in assay [1] stood at 34%. The Kd on PcrV (setting [2]) was 102 µM and 164 µM.
The molecule `Cc1cc(C#N)cc(C)c1OCCCC(=O)O` [Compound 12] had a Kd on PcrV (setting [2]) of over 600 µM. The “Binding to PcrV in SPR (in words)” value on PcrV is on record as “reduced binding”.
Take `O=C(O)CCCOc1cc(Cl)cc(Cl)c1` [Compound 2]: the Kd at PcrV (setting [2]) was < 127 µM and 102 µM and 127 µM.
For the molecule `O=C(O)CCCOc1ccc2ccc(=O)oc2c1` [Compound 11], at PcrV (setting [2]), the Kd was over 600 µM. Besides, on PcrV, the “Binding to PcrV in SPR (in words)” value is “no binding to PcrV”.
The matching figures for `O=C(O)CCCOc1ccc(Cl)cc1` [Compound 3]: over 600 µM and “no binding at the examined concentrations”.
The matching figures for `O=C(O)CCCOc1cccc(C(F)(F)F)c1` [Compound 9]: over 600 µM and “no binding to PcrV”.
In the case of `Cc1c(Br)ccc(OCCCC(=O)NC(C(=O)O)c2ccccc2)c1C` (stereo not shown) [Compound 21], in assay [1], the viability at 25 µM was 12%, the viability at 50 µM is 26%, the viability at 100 µM was determined as 36% and the viability at 200 µM was found to be 30%. On PcrV (setting [3]), this molecule gave a Kd of 66.5 ± 18.5 µM. Moreover, the Kd at PcrV (setting [2]) is 67 µM and 88 µM. For the same molecule, at PcrV (single experiment), the “Rmax (Table S1)” value is 149.8.
At PcrV (setting [2]), `O=C(O)CCCOc1cccc(C(=O)O)c1` [Compound 10] showed a Kd of over 600 µM. Moreover, at PcrV, the “Binding to PcrV in SPR (in words)” value is “no binding to PcrV”.
As to `Cc1c(Br)ccc(OCCCCC(=O)O)c1C` [Compound 31], in assay [1], the “Anti-virulence efficacy” value was “no or modest anti-virulence activity without clear dose-response”, the viability at 25 µM worked out at 11%, the viability at 50 µM was 17% and the viability at 100 µM came to 18%. Further, in assay [1], the viability at 200 µM stood at 17%. Further, at PcrV (setting [2]), the equilibrium dissociation constant (Kd) is 120 µM and 138 µM.
Turning to `O=C(O)CCCOc1ccc(Cc2ccccc2)cc1` [Compound 16], the Kd on PcrV (setting [2]) is over 600 µM.
In turn, `O=C(O)CCCOc1ccc(Br)cc1F` [Compound 5] registered a Kd at PcrV (setting [2]) of over 600 µM. At PcrV, the “Binding to PcrV in SPR (in words)” value is “no binding at the examined concentrations”.
The matching figures for `Cc1c(Br)ccc(OCCCC(=O)Nc2cc(F)c(F)cc2C(=O)O)c1C` [Compound 24]: over 600 µM and “failed to bind PcrV”.
As for `Cc1c(Br)ccc(OCCCC(=O)NS(C)(=O)=O)c1C` [Compound 26], in assay [1], the viability at 25 µM is 10%, the viability at 50 µM was 11%, the viability at 100 µM came to 17% and the viability at 200 µM came out at 13%. The Kd at PcrV (setting [3]) was found to be 135 ± 30 µM. At PcrV (setting [2]), this molecule yielded a Kd of 93 ± 31 µM.
On to `Cc1c(Br)ccc(OCCCC(=O)N2CCCC(C(=O)O)C2)c1C` (stereo not shown) [Compound 20], for which, in assay [1], the “Anti-virulence efficacy” value was “no or modest anti-virulence activity without clear dose-response”, the viability at 25 µM came to 15%, the viability at 50 µM is 15% and the viability at 100 µM turned out to be 15%. Moreover, the viability at 200 µM in assay [1] is 9%. Further, the affinity on PcrV (setting [3]), expressed as Kd, was 71.2 ± 23 µM. Also, on PcrV (setting [2]), the Kd is 71 µM and 131 µM.
As to `O=C(O)CCCOc1ccc(C2CCCCC2)cc1` [Compound 15], in assay [1], the viability at 25 µM was found to be 12%, the viability at 50 µM was 17%, the viability at 100 µM turned out to be 24% and the viability at 200 µM is 17%. In addition, on PcrV (setting [2]), the affinity, expressed as Kd, was 153 µM.
Regarding `COc1ccc(Br)cc1OCCCC(=O)O` [Compound 6], at PcrV (setting [2]), the Kd is over 600 µM. For the same molecule, the “Binding to PcrV in SPR (in words)” value on PcrV is listed as “impaired binding”.
The matching figures for `COc1cc(OC)cc(OCCCC(=O)O)c1` [Compound 7]: over 600 µM and “impaired binding”.
For `O=C(O)CCCOc1ccc(I)cc1` [Compound 4], in that order: over 600 µM and “no binding at the examined concentrations”.
